This assay deals with methylphenidate. Briefly: Methylphenidate antagonism in mice (rapid screening test for neuroleptic drugs). Conditions: Mus musculus, ip. It is filed as in vivo, NMRI male mice. How it is done: 40 grams of 4-(2-hydroxyethyl)piperidine were then added, and the mixture heated for 17 hours at 90° Centigrade. The mixture was cooled, poured into water, extracted with 500 milliliters of ether, the ether extract washed five times with water and dried over anhydrous magnesium sulphate. The oxalate of 2-trifluoromethyl-7-fluoro-10-(3'-(4-(2-hydroxyethyl)piperidin-1-yl)propyl)phenothiazine was precipitated from acetone-/ether (1:1) and melts at 76°-80° Centigrade. The pharmacological testing of the compounds of the present invention consisted of a standard and reliable, published test showing the neuroleptic activity of the compounds in that they antagonize central nervous stimulating compounds such as amphetamine and methylphenidate. […] 1971, 29, suppl. 4, 44.
The test may briefly be described as follows:
As animals were used NMRI male mice weighing 18-25 grams. 3 × 2 mice are used for each dose level.
2, 6 or 24 hours after i.p.injection of test substance, methylphenidate, 60 mg/kg, is injected s.c. After administration of methylphenidate the mice are placed in the observation cages, 2 in each cage, where they remain for 2, 6 or 24 hours. The cages are placed on corrugated paper, the corrugations facing upwards. It is examined whether or not the mice have been biting the corrugated paper. […] If one or more of the control pairs have also not been biting the corrugated paper, the test has to be repeated on a new set of mice. The following novel substances of Formula I were tested: […]
As reference substances were used the corresponding known phenothiazines having no fluorine substitution at position 7, namely fluphenazine, perphenazine, thioproperazine, acetophenazine and chlorpromazine respectively.

Where [1] appears, read: 2 h after i.p. injection of test substance, methylphenidate 60 mg/kg s.c., mice, read-out: Methylphenidate Antagonism ED50, 2h.
Setting [2] is: 6 h after i.p. injection of test substance, methylphenidate 60 mg/kg s.c., mice, read-out: Methylphenidate Antagonism ED50, 6h.
Where [3] appears, read: 24 h after i.p. injection of test substance, methylphenidate 60 mg/kg s.c., mice, read-out: Methylphenidate Antagonism ED50, 24h.
Setting [4] is: 2 h, read-out: Methylphenidate Antagonism ED50, 2h.
The mark [5] stands for this setting: 6 h, read-out: Methylphenidate Antagonism ED50, 6h.
Setting [6] is: 24 h, read-out: Methylphenidate Antagonism ED50, 24h.

Like-named read-outs stand apart in the source and are kept apart here.

In US3966930A, “Phenothiazine derivatives, compositions thereof and methods of preparation thereof” (Kefalas A/S, priority 1973, dated 1976) one finds ED50 data, which are given here for ten compounds.

The ED50 is the dose at which the effect has come halfway, by size or by number of responders. On to `OCCN1CCN(CCCN2c3ccc(F)cc3Sc3ccc(Cl)cc32)CC1` [Lu 10-125, 2-chloro-7-fluoro-10-(3'-(4-(2-hydroxyethyl)-1-piperazinyl)propyl)-phenothiazine], for which the ED50 runs as follows: under setting [1], 0.06 mg/kg; under setting [2], 0.05 mg/kg; under setting [3], greater than 5 mg/kg.
Turning to `OCCN1CCN(CCCN2c3ccccc3Sc3ccc(Cl)cc32)CC1` [Perphenazine], the ED50 is, setting by setting: under setting [4], 0.08 mg/kg; under setting [5], 0.55 mg/kg; under setting [6], greater than 5 mg/kg.
Turning to `CN1CCN(CCCN2c3ccc(F)cc3Sc3ccc(S(=O)(=O)N(C)C)cc32)CC1` [Lu 11-075, 2-dimethylsulfamoyl-7-fluoro-10-(3'-(4-methyl-piperazin-1-yl)-propyl)phenothiazine], the median effective dose (ED50) is 0.7 mg/kg under setting [1], 0.44 mg/kg under setting [2] and greater than 5 mg/kg under setting [3].
Regarding `OCCN1CCN(CCCN2c3ccc(F)cc3Sc3ccc(C(F)(F)F)cc32)CC1` [Lu 10-116, 2-trifluoromethyl-7-fluoro-10-(3'-(4-(2-hydroxyethyl)-piperazine-1-yl)propyl)phenothiazine], the 50% effective dose (ED50) by setting is: under setting [1], 0.11 mg/kg; under setting [2], 0.01 mg/kg; under setting [3], 0.08 mg/kg.
As to `CN1CCN(CCCN2c3ccccc3Sc3ccc(S(=O)(=O)N(C)C)cc32)CC1` [Thioproperazine], the median effective dose (ED50) by setting is: under setting [1], 0.28 mg/kg; under setting [2], 1.2 mg/kg; under setting [3], greater than 5 mg/kg.
For `OCCN1CCN(CCCN2c3ccccc3Sc3ccc(C(F)(F)F)cc32)CC1` [Fluphenazine], in that order: 0.08 mg/kg, 0.03 mg/kg and greater than 2.5 mg/kg.
As to `CC(=O)c1ccc2c(c1)N(CCCN1CCN(CCO)CC1)c1ccccc1S2` [Acetophenazine], the ED50 under setting [1] is 0.2 mg/kg, the ED50 under setting [2] was 4.4 mg/kg and the ED50 under setting [3] is greater than 10 mg/kg.
On to `CC(=O)c1ccc2c(c1)N(CCCN1CCN(CCO)CC1)c1ccc(F)cc1S2` [Lu 11-087, 2-acetyl-7-fluoro-10-(3'-(4-(2-hydroxyethyl)-1-piperazinyl)-propyl)phenothiazine], for which the median effective dose (ED50) runs as follows: under setting [1], 0.06 mg/kg; under setting [2], 0.07 mg/kg; under setting [3], greater than 1.25 mg/kg.
`CN(C)CCCN1c2ccccc2Sc2ccc(Cl)cc21` [Chlorpromazine]: the ED50 is 3.3 mg/kg under setting [4], greater than 20 mg/kg under setting [5] and greater than 20 mg/kg under setting [6].
As for `CN(C)CCCN1c2ccc(F)cc2Sc2ccc(Cl)cc21` [Lu 10-152, 2-chloro-7-fluoro-10-(3'-dimethylaminopropyl)-phenothiazine], the median effective dose (ED50) is, setting by setting: under setting [1], 2 mg/kg; under setting [2], 2.1 mg/kg; under setting [3], greater than 20 mg/kg.
